Experimental data: ChEMBL document CHEMBL4265991
The source made the active and inactive calls. The calls are words filed in the database; no cut-off is given here.

Columns and labels:
[1] = Selectivity index, ratio of IC50 for recombinant human His-tagged IMPDH1 to IC50 for recombinant Cryptococcus neoformans His-tagged IMPDH
[2] = Selectivity index, ratio of IC50 for recombinant human His-tagged IMPDH2 to IC50 for recombinant Cryptococcus neoformans His-tagged IMPDH
[3] = molecular target: Inosine-5'-monophosphate dehydrogenase (Cryptococcus neoformans var. neoformans serotype D (strain JEC21 /ATCC MYA-565) (Filobasidiella neoformans)) (UniProt Q5KP44); assay: Inhibition of recombinant Cryptococcus neoformans His-tagged IMPDH expressed in Escherichia coli BL21 (DE3) using IMP as substrate and DTT containing buffer in presence of NAD
Chain of Inosine-5'-monophosphate dehydrogenase (Cryptococcus neoformans var. neoformans serotype D (strain JEC21 /ATCC MYA-565) (Filobasidiella neoformans)) (Q5KP44 whole entry, looked up): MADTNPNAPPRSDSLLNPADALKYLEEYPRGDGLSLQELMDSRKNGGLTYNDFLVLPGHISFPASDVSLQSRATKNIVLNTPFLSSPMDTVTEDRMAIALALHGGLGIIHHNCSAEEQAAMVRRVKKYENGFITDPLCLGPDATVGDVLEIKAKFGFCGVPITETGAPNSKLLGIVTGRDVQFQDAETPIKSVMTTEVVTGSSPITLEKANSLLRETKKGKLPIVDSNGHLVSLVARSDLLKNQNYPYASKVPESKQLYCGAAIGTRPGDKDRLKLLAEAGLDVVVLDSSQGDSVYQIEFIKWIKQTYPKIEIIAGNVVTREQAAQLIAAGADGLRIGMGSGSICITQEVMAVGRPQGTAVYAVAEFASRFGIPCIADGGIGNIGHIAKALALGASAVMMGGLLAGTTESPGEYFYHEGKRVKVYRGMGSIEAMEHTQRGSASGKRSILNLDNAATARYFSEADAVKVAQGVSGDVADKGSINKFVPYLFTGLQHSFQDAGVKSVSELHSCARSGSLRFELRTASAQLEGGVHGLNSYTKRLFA

Row | Ratio IC50 [1] | Ratio IC50 [2] | inhibition [3] | Compound
1 | > 30 | > 30 |  | COc1ccc(-c2nnc(SC3=CS(=O)(=O)c4ccccc43)o2)cc1
2 |  |  | inactive | O=S1(=O)C=C(Sc2nnc(-c3ccccc3)o2)c2ccccc21
3 | > 30 | > 30 |  | COC(=O)c1ccc(-c2nnc(SC3=CS(=O)(=O)c4ccccc43)o2)cc1
4 |  |  | inactive | COc1ccccc1-c1nnc(SC2=CS(=O)(=O)c3ccccc32)o1
